Experimental data taken from US11913032B2, “Compositions of and methods for in vitro viral genome engineering” (C3J Therapeutics, Inc., priority 2014, dated 2024).

System: P. aeruginosa biofilm
Test: Crystal violet biofilm assay, early (8 h preformed) biofilm disruption
Format: cell-based
Conditions: biofilm preformed for 8 hours, compared with wild type LUZ19
Protocol: To validate that a Gp34 L55Δ mutation had improved viral properties, the LUZ19 viral genome was isolated from viral particles. Site-specific digestion was performed using an RNA-dependent nuclease and in vitro transcribed gRNAs to remove the gp34 gene (SEQ ID NO:4). The gp34 L55Δ gene, which harbors a deletion of leucine codon at amino acid position 55 (Gp34 L55Δ, position 163-165 of SEQ ID NO:4) was PCR amplified from a LUZ19 evolved phage. The Gibson Assembly method was used to integrate the PCR amplified gp34 L55Δ gene seamlessly into the digested LUZ19 genome. The in vitro transformed genomes were transformed directly into host cells to yield functional viral particles. The engineered LUZ19 virus harboring Gp34 L55Δ was able to diffuse and lyse bacteria. […] Images were taken and zones of clearing were measured over a two-day period (FIG. 5B). […] Crystal violet biofilm assay measures biofilm accumulation as a measure of the incorporation of crystal violet (FIG. 5C). […]
The LUZ19*LKD16gp18 virus was analyzed for improved viral properties, using double agar plaque, biofilm, and an in vitro human keratinocyte attachment assays. […] Specifically, LUZ19*LKD16gp18 and wild type LUZ19 were incubated with a P. aeruginosa biofilm and disruption was measured using crystal violet. […] The LUZ19*LKD16gp18 virus was analyzed for efficacy of phage treatment against bacteria attached to human keratinocytes. […]

**Q.** Which early biofilm disruption does the source give for Gentamicin here?
**A.** completely remove biofilm
